Measurements from US10968214B2, “KRas G12C inhibitors” (Eli Lilly and Company, priority 2018, dated 2021).
Values joined by “and” are separate entries in the source; they are usually repeats but may differ in a detail not shown here. Identical values can stand only once. Like-named read-outs stand apart in the source and are kept apart here.

Assays:
H2122 xenograft = assay: Anti-tumor growth activity, lung cancer H2122 xenograft mouse model; assay type: in vivo; conditions: for Tumor Growth Inhibition (%) or Regression (−%): H2122 Lung
Experimental: To evaluate in vivo target inhibition and anti-tumor efficacy of a compound, Human lung cancer cells, H358 or H2122 are implanted into nude mice xenograft tumor models. Either H358 or H2122 cells (10×10^6 in a 1:1 Matrigel® mix, 0.2 mL total volume) are implanted by subcutaneous injection in hind leg of nude female mice (Harlan Laboratories). A total of 5 mice each group are used for efficacy study, and a total of 3-4 mice each group are used for target engagement and PD study. Treatment is initiated with oral administration (gavage) of a test compound or vehicle (20% Captisol®, 25 mM phosphate, pH 2.0 in 0.2 mL volume when the tumor size reaches approximately […]. Tumor growth and body weight are monitored over time to evaluate efficacy and signs of toxicity. Bidimensional measurements of tumors are performed twice a week and tumor volumes are calculated based on mid-axis length and mid-axis width. Tumor volume data are transformed to a log scale to equalize variance across time and treatment groups. The log volume data are analyzed with a two-way repeated measures analysis of variance by time and treatment using the mixed procedures in SAS software (version 8.2). The correlation model for the repeated measures is spatial power. Treated groups are compared to the control group at each time point. The mixed procedure is also used separately for each treatment group to calculate adjusted means and standard errors at each time point. Both analyses account for the autocorrelation within each animal. The adjusted means and standard errors are plotted for each treatment group versus time.
H2122 lung tumor cells (10×10^6) are implanted by subcutaneous injection in hind leg of nude female mice (Taconic Biosciences). A total of 5 mice each group are used for efficacy study.

A549 = assay: CellTiterGlo Cell Proliferation Assay, A549; assay type: cell-based; conditions: KRas G12S, lung, 96 hr; for IC50: Homo sapiens
Experimental: A panel of tumor cell lines harboring KRas G12C or other KRas mutations are collected (Table 6). All cell lines are from ATCC or other sources indicated.
Typically cells are cultured in RPMI1640 or Dulbecco's modified Eagle's medium (DMEM, GIBCO) supplemented with 10% FBS (GIBCO, Invitrogen). For 2D culture cells (4×10^3/well) maintained in growth medium described above, are plated onto 96 well tissue culture plates Corning® Cat. 3603) a day before the treatment. For 3D culture 8000 cells/well are seeded onto 96 well ultra-low attachment tissue culture plates (Corning, #3474). The cells are treated compound for 96 hr, and then are analyzed for viability using the CellTiterGlo® Luminescent Cell Viability Assay® (Promega #G7572 for 2D and Promega #G9683 for 3D cultures) according to manufacturer's instructions and an EnVision™ plate reader. Nonlinear regression and sigmoidal dose-response curves are used to calculate the half maximal inhibitory concentration (IC50) with GraphPad Prism 4® software.

- IC50 (A549; read-out: IC50 (μM) in 2 D cell proliferation): 17.7 µM
- IC50 (A549; read-out: IC50 (μM) in 3 D spheroid cell proliferation): 5.94 µM
- IC50 (μM) in 2 D cell proliferation (A549): little activity
- IC50 (μM) in 3 D spheroid cell proliferation (A549): little activity
SMILES: C=CC(=O)N1CCN(c2ncnc3c(F)c(-c4ccc(F)c5sc(N)nc45)c(Cl)cc23)CC1 [Example 1, 1-{4-[7-(2-Amino-7-fluoro-1,3-benzothiazol-4-yl)-6-chloro-8-fluoroquinazolin-4-yl]piperazin-1-yl}prop-2-en-1-one]
- Tumor Growth Inhibition (%) or Regression (−%) (H2122 xenograft; 30 mg/kg BID, 28 Day, oral, negative = regression): 72.97%
- Tumor Growth Inhibition (%) or Regression (−%) (H2122 xenograft; 30 mg/kg QD, 28 Day, oral, negative = regression, 30 mg/kg): 77.17% and 77.2%
- Tumor Growth Inhibition (%) or Regression (−%) (H2122 xenograft; 100 mg/kg QD, 28 Day, oral, negative = regression, 100 mg/kg): 91.06% and 91.1%
- Tumor Growth Inhibition (%) or Regression (−%) (H2122 xenograft; Example 1 30 mg/kg QDx28): 77.2
- Tumor Growth Inhibition (%) or Regression (−%) (H2122 xenograft; Example 1 100 mg/kg QDx28): −1.4
- animal body weight loss (H2122 xenograft; H2122 xenograft mice, 30 mg/kg once or twice daily or 100 mg/kg once daily for 28 days, oral): No significant animal body weight loss was observed
